Values joined by “and” are separate entries in the source; they are usually repeats but may differ in a detail not shown here. Identical values can stand only once. Inconclusive results and toxic doses are left out. Cut-off read from the data, not from the text of the source: active = T/C of 150% or more; inactive = T/C below 125%.
Test system: L1210 leukemia ip in BDF1 mice, survival T/C
Test: NCI In Vivo Anticancer Drug Screen. Data for tumor model L1210 Leukemia (intraperitoneal) in B6D2F1 (BDF1) mice
Settings: endpoint: mean survival time, higher = longer survival
Outline: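 Transplanted-tumor mice were given test agent; controls received vehicle only. Survival readings from the two groups were divided (treated over control).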

[1] = dose: 100.0 mg/kg/injection, schedule: Q04DX002 (ip), vehicle: saline with Tween-80
[2] = dose: 400.0 mg/kg/injection, schedule: Q04DX002 (ip), vehicle: saline with Tween-80
[3] = dose: 100.0 mg/kg/injection, schedule: Q01DX009 (ip), vehicle: saline with Tween-80
[4] = dose: 100.0 mg/kg/injection, schedule: Q04DX003 (ip), vehicle: saline with Tween-80
[5] = dose: 200.0 mg/kg/injection, schedule: Q01DX009 (ip), vehicle: saline with Tween-80
[6] = dose: 200.0 mg/kg/injection, schedule: Q04DX003 (ip), vehicle: saline with Tween-80
[7] = dose: 400.0 mg/kg/injection, schedule: Q01DX009 (ip), vehicle: saline with Tween-80
[8] = dose: 400.0 mg/kg/injection, schedule: Q04DX003 (ip), vehicle: saline with Tween-80
[9] = dose: 400.0 mg/kg/injection, schedule: Q01DX009 (ip), vehicle: Klucel (hydroxypropylcellulose) (HPC)
[10] = dose: 100.0 mg/kg/injection, schedule: Q01DX009 (ip), vehicle: Klucel (hydroxypropylcellulose) (HPC)
[11] = dose: 200.0 mg/kg/injection, schedule: Q01DX009 (ip), vehicle: Klucel (hydroxypropylcellulose) (HPC)
[12] = dose: 100.0 mg/kg/injection, schedule: Q01DX001 (ip), vehicle: carboxymethylcellulose (CMC)
[13] = dose: 200.0 mg/kg/injection, schedule: Q01DX001 (ip), vehicle: carboxymethylcellulose (CMC)
[14] = dose: 400.0 mg/kg/injection, schedule: Q01DX001 (ip), vehicle: carboxymethylcellulose (CMC)
[15] = dose: 100.0 mg/kg/injection, schedule: Q04DX003 (ip), vehicle: saline
[16] = dose: 200.0 mg/kg/injection, schedule: Q04DX003 (ip), vehicle: saline
[17] = dose: 100.0 mg/kg/injection, schedule: Q04DX003 (ip), vehicle: Klucel (hydroxypropylcellulose) (HPC)
[18] = dose: 50.0 mg/kg/injection, schedule: Q01DX001 (ip), vehicle: carboxymethylcellulose (CMC)
[19] = dose: 400.0 mg/kg/injection, schedule: Q04DX003 (ip), vehicle: saline

Measured: T/C

CCCCCCCCOC(=O)COc1cccc(C)c1
inactive: [1] 103 % of control | dose: 200.0 mg/kg/injection, schedule: Q04DX002 (ip), vehicle: saline with Tween-80 100 % of control | [2] 100 % of control

NC(N)=NC1=NC(=O)CS1
inactive: [3] 105 % of control | [4] 108 % of control | [5] 103 % of control | [6] 96 % of control | [7] 103 % of control | [8] 92 % of control

CC(=O)Nc1ccccc1C(=NC1CCCC1)C(=O)NC1CCCC1
inactive: dose: 3.12 mg/kg/injection, schedule: Q01DX009 (ip), vehicle: Klucel (hydroxypropylcellulose) (HPC) 97 % of control | dose: 6.25 mg/kg/injection, schedule: Q01DX009 (ip), vehicle: Klucel (hydroxypropylcellulose) (HPC) 94 % of control | dose: 12.5 mg/kg/injection, schedule: Q01DX009 (ip), vehicle: Klucel (hydroxypropylcellulose) (HPC) 89 % of control | [9] 95 % of control

Nc1ccccc1SC(CC(=O)c1ccccc1)c1ccc([N+](=O)[O-])cc1 (stereo not drawn)
inactive: dose: 100.0 mg/kg/injection, schedule: Q01DX005 (ip), vehicle: Klucel (hydroxypropylcellulose) (HPC) 101 % of control | [10] 97 % of control | [11] 91 % of control | dose: 400.0 mg/kg/injection, schedule: Q01DX005 (ip), vehicle: Klucel (hydroxypropylcellulose) (HPC) 86 % of control | [9] 97 % of control

O=C1OC(c2ccccc2)(c2ccccc2)c2ccc3ccccc3c21
inactive: [3] 98 % of control | [5] 103 % of control | [7] 98 % of control

CN(C)C(=O)N/C=C/NC(=O)N(C)C
inactive: dose: 12.5 mg/kg/injection, schedule: Q04DX002 (ip), vehicle: saline with Tween-80 92 % of control | dose: 25.0 mg/kg/injection, schedule: Q04DX002 (ip), vehicle: saline with Tween-80 89 % of control | dose: 50.0 mg/kg/injection, schedule: Q04DX002 (ip), vehicle: saline with Tween-80 106 % of control

NC(=O)c1ccc(Cl)c(Cl)c1
inactive: [4] 97 % of control | [6] 95 % of control | [8] 91 % of control

NC(=S)c1ccc2ccc3cccnc3c2n1
inactive: dose: 50.0 mg/kg/injection, schedule: Q04DX003 (ip), vehicle: saline with Tween-80 95 % of control | [4] 104 % of control | [6] 106 % of control

COc1cc2c(cc1OC)[C@@H]1Cc3ccc(OC)c(OC)c3CN1CC2
inactive: [12] 102 % of control | [13] 110 % of control | [14] 94 % of control

CNCCCC(CO)NS(=O)(=O)c1ccc(C)cc1 (stereo not drawn)
inactive: dose: 100.0 mg/kg/injection, schedule: Q01DX001 (ip), vehicle: water 94 % of control | dose: 100.0 mg/kg/injection, schedule: Q04DX003 (ip), vehicle: water 92 % of control | dose: 200.0 mg/kg/injection, schedule: Q01DX001 (ip), vehicle: water 97 % of control | dose: 200.0 mg/kg/injection, schedule: Q04DX003 (ip), vehicle: water 100 % of control | dose: 400.0 mg/kg/injection, schedule: Q01DX001 (ip), vehicle: water 97 % of control | dose: 400.0 mg/kg/injection, schedule: Q04DX003 (ip), vehicle: water 87 % of control

c1ccc(-c2oc(-c3ccccc3)c3c(-c4ccccc4)cccc23)cc1
inactive: [1] 105 % of control | [2] 98 % of control

O=C1OC(=O)C2C(c3ccccc3)C=CC(c3ccccc3)C12 (stereo not drawn)
inactive: dose: 50.0 mg/kg/injection, schedule: Q01DX009 (ip), vehicle: saline with Tween-80 98 % of control | [3] 108 % of control | [15] 92 % of control | [5] 98 % of control | [16] 108 % of control

CC(C)C(C)/C=C\C(C)C1CCC2=C3CCC4CC(O)CCC4(C)C3CCC21C (stereo not drawn)
inactive: dose: 100.0 mg/kg/injection, schedule: Q01DX001 (ip), vehicle: Klucel (hydroxypropylcellulose) (HPC) 97 % of control | dose: 200.0 mg/kg/injection, schedule: Q01DX001 (ip), vehicle: Klucel (hydroxypropylcellulose) (HPC) 97 % of control | dose: 400.0 mg/kg/injection, schedule: Q01DX001 (ip), vehicle: Klucel (hydroxypropylcellulose) (HPC) 93 % of control

CC(=O)Nc1cccc2cc(O)ccc12
inactive: dose: 100.0 mg/kg/injection, schedule: Q04DX003 (ip), vehicle: gum acacia 98 % of control | dose: 200.0 mg/kg/injection, schedule: Q04DX003 (ip), vehicle: gum acacia 100 % of control | dose: 400.0 mg/kg/injection, schedule: Q04DX003 (ip), vehicle: gum acacia 88 % of control

CC(C)CN1CC(Br)C(=O)NC1=O (stereo not drawn)
inactive: dose: 25.0 mg/kg/injection, schedule: Q01DX Z (ip), vehicle: methylcellulose (MC) 92 % of control | dose: 50.0 mg/kg/injection, schedule: Q01DX Z (ip), vehicle: methylcellulose (MC) 88 % of control

NC(=O)C1=Cc2cc(Cl)cc(Cl)c2OC1
inactive: [3] 93 % of control | [5] 93 % of control | [7] 98 % of control

CN(C)C(=S)Sc1nc2ccccc2s1
inactive: [17] 101 % of control | dose: 200.0 mg/kg/injection, schedule: Q04DX003 (ip), vehicle: Klucel (hydroxypropylcellulose) (HPC) 104 % of control | dose: 400.0 mg/kg/injection, schedule: Q04DX003 (ip), vehicle: Klucel (hydroxypropylcellulose) (HPC) 101 % of control

Cc1ccccc1N=C(N)N=C(N)N
inactive: dose: 25.0 mg/kg/injection, schedule: Q01DX009 (ip), vehicle: Klucel (hydroxypropylcellulose) (HPC) 93 % of control | dose: 25.0 mg/kg/injection, schedule: Q04DX003 (ip), vehicle: Klucel (hydroxypropylcellulose) (HPC) 95 % of control | dose: 50.0 mg/kg/injection, schedule: Q01DX009 (ip), vehicle: Klucel (hydroxypropylcellulose) (HPC) 90 % of control | dose: 50.0 mg/kg/injection, schedule: Q04DX003 (ip), vehicle: Klucel (hydroxypropylcellulose) (HPC) 103 % of control | [10] 98 % of control and 92 % of control | [17] 100 % of control and 90 % of control

COC(=O)/C=C\C(=O)NC(C)(C)CC(C)(C)C
inactive: [18] 100 % of control | [12] 105 % of control | [13] 105 % of control | [14] 96 % of control

O=c1[nH]c(=O)[nH]c(=O)[nH]1
inactive: [10] 100 % of control | [15] 90 % of control | [11] 91 % of control | [16] 90 % of control | [9] 101 % of control | [19] 98 % of control

NC(=O)SCC(=O)Nc1ccc2ncccc2c1
inactive: [18] 97 % of control | dose: 88.0 mg/kg/injection, schedule: Q01DX001 (ip), vehicle: carboxymethylcellulose (CMC) 95 % of control and 112 % of control | [12] 94 % of control | dose: 100.0 mg/kg/injection, schedule: Q01DX009 (ip), vehicle: saline sonified 98 % of control | [15] 93 % of control | dose: 134.0 mg/kg/injection, schedule: Q01DX001 (ip), vehicle: carboxymethylcellulose (CMC) 95 % of control and 105 % of control | dose: 200.0 mg/kg/injection, schedule: Q01DX009 (ip), vehicle: saline sonified 90 % of control | [16] 109 % of control | dose: 300.0 mg/kg/injection, schedule: Q01DX001 (ip), vehicle: carboxymethylcellulose (CMC) 100 % of control and 87 % of control | [14] 100 % of control | dose: 400.0 mg/kg/injection, schedule: Q01DX009 (ip), vehicle: saline sonified 101 % of control | [19] 96 % of control

Source: PubChem BioAssay AID248 (DTP/NCI, 2004)
